Test results published in PMC10328743, “5-Nitro-3-(2-(4-phenylthiazol-2-yl)hydrazineylidene)indolin-2-one derivatives inhibit HIV-1 replication by a multitarget mechanism of action” (Frontiers in Cellular and Infection Microbiology, 2023).
Like-named read-outs stand apart in the source and are kept apart here.

Tests used:
[1] = biological target: T1, HIV-1 RT-associated RNase H (Human immunodeficiency virus type 1 group M subtype B, UniProt P04585); assay: HIV-1 DNA polymerase-independent RNase H activity determination; type: biochemical; details: wt HIV-1 RT; three independent experiments, average ± standard deviation; read-out: RNase H IC50
T1 construct: The 1:1 ratio between the p66/p51 subunits was also verified; His tag (implied only by Ni-NTA IMAC purification); made in house; host or cells: Escherichia coli M15
Method: (§1) Escherichia coli strain M15 containing the p6HRT-prot vector (provided by Stuart Le Grice laboratory (NCI Frederick)) was grown to an optical density at 600 nm of 0.7 and induced with 1.7 mM of isopropyl β-D-1-thiogalactopyranoside (IPTG) for 4 h. Protein purification was carried out with a BioLogic LP system (Bio-Rad, Hercules, CA, USA) using a combination of immobilized metal affinity chromatography (IMAC) and ion exchange chromatography. Cell pellets were resuspended in lysis buffer (50 mM of sodium phosphate buffer, pH 7.8, containing 0.5 mg/mL of lysozyme), incubated on ice for 20 min, and, after the addition of NaCl to a final concentration of 0.3 M, were sonicated and centrifuged at 30,000 ×g for 1 h. The supernatant was loaded onto a Ni^2+-NTA-Sepharose column pre-equilibrated with loading buffer (50 mM of sodium phosphate buffer, pH 7.8, containing 0.3 M of NaCl, 10% glycerol, and 10 mM of imidazole) and washed thoroughly with wash buffer (50 mM of sodium phosphate buffer, pH 6.0, containing 0.3 M of NaCl, 10% glycerol, and 80 mM of imidazole). RT was eluted with an imidazole gradient in the wash buffer (0–0.5 M). Fractions were collected, and protein purity was checked by sodium dodecyl sulfate–polyacrylamide gel electrophoresis (SDS-PAGE) and found to be higher than 90%. The 1:1 ratio between the p66/p51 subunits was also verified. Enzyme-containing fractions were pooled and diluted 1:1 with 50 mM of sodium phosphate buffer, pH 7.0, containing 10% glycerol, and then loaded into a Hi-trap heparin HP GE (Healthcare LifeScience) pre-equilibrated with 10 column volumes of loading buffer (50 mM of sodium phosphate buffer, pH 7.0, containing 10% glycerol, and 150 mM of NaCl). The column was then washed with loading buffer, and the RT was eluted with Elute Buffer 2 (50 mM of sodium phosphate, pH 7.0, 10% glycerol, 1 M of NaCl). Fractions were collected, and the protein was dialyzed and stored in a buffer containing 50 mM of Tris-HCl, pH 7.0, 25 mM of NaCl, 1 mM of EDTA, and 50% glycerol. Catalytic activities and protein concentrations were determined. Enzyme-containing fractions were pooled, and aliquots were stored at −80°C.
HIV RT-associated RNase H activity was measured as described ([Corona et al., 2016b]) in a 100-µl reaction volume containing 50 mM of Tris-HCl buffer, pH 7.8, 6 mM of MgCl2, 1 mM of dithiothreitol (DTT), 80 mM of KCl, 0.25 µM of hybrid RNA/DNA 5′-[…]-Fluorescin-3′ (high-performance liquid chromatography (HPLC), dry, QC: Mass Check) (available from Metabion) 5′-Dabcyl-[…]-3′ (HPLC, dry, QC: Mass Check), increasing concentrations of inhibitors, whose dilution were made in water, and different amounts of enzymes according to a linear range of the dose–response curve. The reaction mixture was incubated for 1 h at 37°C and stopped by the addition of EDTA, and products were measured with a multilabel counter plate reader Victor 3 equipped with filters for 490/528 nm.

[2] = biological target: T2, HIV-1 IN-LEDGF binding (Human immunodeficiency virus type 1 group M subtype B, UniProt P12497); assay: biochemical
T2 construct: Preparation of recombinant full-length IN and LEDGF proteins; made in house; host or cells: E. coli BL21(DE3)
Method: (§2) Proteins were expressed in E. coli BL21(DE3). Briefly, His-IN was purified by loading the precipitate of cell lysate onto a Ni-Sepharose column and eluting with a […] imidazole gradient (0–500 mM) in a HEPES buffer (50 mM, pH 7.5) containing NaCl (1 M), CHAPS (7.5 mM), and β-mercaptoethanol (2 mM). FLAG-IN was purified by loading the precipitate of cell lysate onto a phenyl-sepharose and ammonium sulfate gradient (0–800 mM) in a HEPES (pH 7.5, 50 mM) buffer containing NaCl (200 mM), CHAPS (7.5 mM), and β-mercaptoethanol (2 mM). Peak fractions were pooled, loaded onto a heparin column, and eluted with an increasing NaCl gradient (200 mM to 1 M) in a HEPES (pH 7.5, 50 mM) buffer containing CHAPS (7.5 mm) and β-mercaptoethanol (2 mM). Fractions containing integrase were pooled and stored in glycerol (10%) at −80°C.
Briefly, His-IN was preincubated with different concentrations of a compound in a buffer containing NaCl (150 mm), MgCl2 (2 mM), Nonidet P-40 (0.1%), BSA (1 mg/ml), and Tris (pH 7.4, 25 mm) for 30 min at room temperature. Then, FLAG-LEDGF was added to the reaction mixture, and a mixture of anti-His6-XL665 and anti-FLAG-EuCryptate antibodies was added.

[3] = tested on: HIV-1; assay: HIV-1 replication inhibition in MT4 cells; type: cell-based; details: three independent experiments, average ± standard deviation, read-out: HIV-1 EC50
Method: (§3) HIV-1 replication was carried out in MT4 cells as previously reported ([Corona et al., 2016a]) using a molecular clone derived from the pNL4-3 ([Thierry et al., 2015]). A total of 120 ng of p24^gag antigen per 10^6 cells, corresponding to a multiplicity of infection (m.o.i.) of 0.3, was used for infection. […] Flow cytometry analysis was performed on a FACSCalibur flow cytometer (BD Biosciences, San Jose, CA, USA), and the results were analyzed using the […] software.

[4] = biological target: T3, HIV-1 IN-IN subunit exchange (Human immunodeficiency virus type 1 group M subtype B, UniProt P12497); assay: HTRF-based IN subunit exchange assay; type: binding
T3 construct: Preparation of recombinant full-length IN and LEDGF proteins; made in house; host or cells: E. coli BL21(DE3)
Method: as §2
His and FLAG-tagged INs were mixed in Tris (pH 7.4, 25 mm) buffer containing NaCl (150 mm), MgCl2 (2 mM), Nonidet P-40 (0.1%), and BSA (1 mg/ml). Test compounds were then added to the mixture, and incubation was carried out for 2.5 h at room temperature.

[5] = biological target: T4, HIV-1 IN (LEDGF/p75-dependent) (Human immunodeficiency virus type 1 group M subtype B, UniProt P12497); assay: biochemical; type: biochemical; details: strand-transfer activity in the presence of LEDGF/p75; read-out: IC50 IN LEDGF-dependent integration
T4 construct: Preparation of recombinant full-length IN and LEDGF proteins; made in house; host or cells: E. coli BL21(DE3)
Method: as §2
(§4) Briefly, IN (50 nM) was preincubated with increasing concentrations of compounds for 1 h at room temperature in a reaction buffer containing HEPES (20 mM, pH 7.5), DTT (1 mM), glycerol (1%), MgCl2 (20 mM), Brij-35 (0.05%), and bovine serum albumin (BSA) (0.1 mg/ml).

[6] = tested on: MT4 cells; assay: Viability of infected MT4 cells (cytotoxicity); type: cell-based; details: no toxicity up to the highest concentration tested
Method: as §3

[7] = Viability of infected MT4 cells (cytotoxicity); type: cell-based; details: human, MT4 cells infected with HIV-1; infected MT4 cells viability; three independent experiments, average ± standard deviation
Method: as §3

[8] = biological target: T5, HIV-1 IN (LEDGF-independent) (Human immunodeficiency virus type 1 group M subtype B, UniProt P12497); assay: biochemical; details: strand-transfer activity with omission of LEDGF/p75; read-out: IC50 IN LEDGF-independent integration
T5 construct: Preparation of recombinant full-length IN and LEDGF proteins; made in house; host or cells: E. coli BL21(DE3)
Method: as §2, §4

[9] = biological target: T6, HIV-1 RT-associated RDDP (Human immunodeficiency virus type 1 group M subtype B, UniProt P04585); assay: HIV-1 RNA-dependent DNA polymerase activity determination; type: biochemical
T6 construct: The 1:1 ratio between the p66/p51 subunits was also verified; His tag (implied only by Ni-NTA IMAC purification); made in house; host or cells: Escherichia coli M15
Method: as §1
(§5) RDDP activity was measured as previously reported in 25-µl volume containing 60 mM of Tris‐HCl buffer, pH 8.1, 8 mM of MgCl2, 60 mM of KCl, 13 mM of DTT, 2.5 µM of poly(A)-oligo(dT), 100 µM of dTTP, increasing concentrations of inhibitors, whose dilution were made in water, and different amounts of enzymes according to a linear range of the dose–response curve. The reaction mixture was incubated for 30 min at 37°C and then stopped by the addition of EDTA. Reaction products were detected by pico green addition and measured with a multilabel counter plate reader Victor 3, equipped with filters for 502/523 nm.

[10] = tested on: MT4 cells; details: cited from earlier work
[11] = tested on: HIV-1 RT K103N (RDDP); assay: RDDP activity of K103N HIV-1 RT; type: biochemical
Method: (§6) K103N, Y181C, and Y188L mutations were introduced into the p6HRT-prot vector using the QuikChange protocol (Agilent Technologies, Santa Clara, CA, USA). Enzymes were expressed and purified as the wt-HIV-1 RT.
as §5

[12] = tested on: HIV-1 RT Y188L (RDDP); assay: RDDP activity of Y188L HIV-1 RT; type: biochemical
Method: as §6, §5

[13] = tested on: HIV-1 RT Y181C (RDDP); assay: RDDP activity of Y181C HIV-1 RT; type: biochemical
Method: as §6, §5

[14] = tested on: HIV-1; details: read-out: HIV-1 EC50; viral replication in MT4 cells; ref Corona et al. (2014a); cited from earlier work
[15] = Human immunodeficiency virus 1, MT4, viral replication in MT4 cells
[16] = wt HIV-1 RT, three independent experiments, average ± standard deviation, read-out: RDDP IC50

Compound | IC50 [1] | IC50 [2] | EC50 [3, 15] | IC50 [4] | IC50 [5] | CC50 [7] | IC50 [8] | IC50 [9, 16] | other results
O=C1Nc2ccc([N+](=O)[O-])cc2/C1=N/Nc1nc(-c2ccc(Cl)cc2)cs1 [1a] | 4.6 ± 1.4 µM | > 100 µM | < 20 µM | 22.8 ± 2.6 µM | 22.4 ± 4.65 µM | > 100 µM | 100 µM | 10 ± 0.5 µM | EC50 ([3]; viral replication in MT4 cells): 25 ± 2.1 µM; toxicity against MT4 cells [6]: > 100 µM
O=C1Nc2ccc([N+](=O)[O-])cc2/C1=N/Nc1nc(-c2ccc(Br)cc2)cs1 [3a] | 4.3 ± 0.7 µM | > 100 µM | < 20 µM | 18.5 ± 3.5 µM | 15.5 ± 3 µM | > 100 µM | 73.5 ± 13.5 µM | 8.5 ± 0.5 µM | EC50 ([3]; viral replication in MT4 cells): 32 ± 3.2 µM; toxicity against MT4 cells [6]: > 100 µM
O=C1Nc2ccc([N+](=O)[O-])cc2/C1=N/Nc1nc(-c2ccccc2)cs1 [12a] | 6 ± 1 µM |  | > 100 µM |  |  | > 100 µM |  |  | IC50 [9]: 13 ± 2 µM
O=C1Nc2ccc(Cl)cc2/C1=N/Nc1nc(-c2ccccc2)cs1 [12b] | 5.4 ± 0.6 µM |  | > 70 µM |  |  | 70 ± 5 µM |  | 9.4 ± 1.1 µM | 
Cn1c(-c2ccccc2)cs/c1=N\N=C1/C(=O)Nc2ccc([N+](=O)[O-])cc21 [12c] | 3.6 ± 0.8 µM |  | > 10 µM |  |  | 10 ± 1.2 µM |  | 8.1 ± 0.1 µM | 
O=C1Nc2ccc(Cl)cc2[C@@](C#CC2CC2)(C(F)(F)F)O1 [EFV, efavirenz] |  |  |  |  |  |  |  |  | CC50 ([10]; read-out: MT4 CC50, MT4 cells viability, ref Corona et al. (2014a)): > 0.31 µM; increase in IC50 vs wt RT, RDDP activity [11]: 9.1 fold; increase in IC50 vs wt RT, RDDP activity [12]: 14 fold; increase in IC50 vs wt RT, RDDP activity [13]: 3.5 fold
CCOC(=O)C(=O)CC(=O)/C=C/c1cccn1Cc1ccccc1Cl [RDS1759] |  |  |  |  |  |  |  |  | EC50 [14]: 2.1 µM; CC50 [10]: > 50 µM
N#Cc1ccc(-c2csc(NN=C3C(=O)Nc4ccccc43)n2)cc1 [RMNC6, reference compound] |  | > 100 µM |  | > 100 µM | > 100 µM |  | > 100 µM |  | 
